The text below walks through data of patent US20080139558A1, “QUINOLONES USEFUL AS INDUCIBLE NITRIC OXIDE SYNTHASE INHIBITORS” (KALYPSYS, INC., priority 2006, published 2008).

The target of the assay is T1, human iNOS (Homo sapiens, UniProt P35228).
T1 construct: expressed in transfected cells; host or cells: HEK293
T1 sequence (P35228 whole entry): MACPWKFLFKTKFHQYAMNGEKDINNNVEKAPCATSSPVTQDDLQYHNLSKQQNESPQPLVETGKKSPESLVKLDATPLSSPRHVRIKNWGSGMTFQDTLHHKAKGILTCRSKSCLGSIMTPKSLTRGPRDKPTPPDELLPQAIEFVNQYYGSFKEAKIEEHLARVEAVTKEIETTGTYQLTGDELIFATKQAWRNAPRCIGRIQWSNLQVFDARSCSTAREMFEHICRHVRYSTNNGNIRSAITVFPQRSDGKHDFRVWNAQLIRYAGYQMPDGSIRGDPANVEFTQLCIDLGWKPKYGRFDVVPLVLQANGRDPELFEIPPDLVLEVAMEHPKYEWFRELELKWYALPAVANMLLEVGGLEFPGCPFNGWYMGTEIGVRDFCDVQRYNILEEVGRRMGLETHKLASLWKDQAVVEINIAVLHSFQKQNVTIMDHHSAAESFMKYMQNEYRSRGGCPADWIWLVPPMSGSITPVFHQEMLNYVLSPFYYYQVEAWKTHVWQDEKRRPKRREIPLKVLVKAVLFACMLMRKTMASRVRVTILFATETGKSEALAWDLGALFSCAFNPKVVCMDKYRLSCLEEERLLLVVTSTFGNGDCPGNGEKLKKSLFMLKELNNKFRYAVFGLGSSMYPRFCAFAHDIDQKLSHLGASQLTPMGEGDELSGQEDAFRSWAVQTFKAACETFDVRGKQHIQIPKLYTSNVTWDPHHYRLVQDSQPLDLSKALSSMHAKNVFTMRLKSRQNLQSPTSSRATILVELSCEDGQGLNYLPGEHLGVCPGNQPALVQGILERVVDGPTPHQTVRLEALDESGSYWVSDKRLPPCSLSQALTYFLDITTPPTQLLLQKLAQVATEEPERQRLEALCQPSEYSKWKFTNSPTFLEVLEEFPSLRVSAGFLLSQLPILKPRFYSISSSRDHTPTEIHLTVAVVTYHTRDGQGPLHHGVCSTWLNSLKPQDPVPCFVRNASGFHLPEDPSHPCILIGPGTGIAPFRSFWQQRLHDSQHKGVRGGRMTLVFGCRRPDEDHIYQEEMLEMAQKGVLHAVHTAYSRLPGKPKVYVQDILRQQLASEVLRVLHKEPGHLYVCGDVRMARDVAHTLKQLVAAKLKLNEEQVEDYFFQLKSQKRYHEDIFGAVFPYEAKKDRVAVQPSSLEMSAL
The assay can be described thus: DAN assay of nitric oxide production (hiNOS). The following applies: enzyme expressed in HEK293 cells transiently transfected with human iNOS. Type of assay: cell-based. An excerpt:
The source of nitric oxide synthase (NOS) enzyme can be generated in several ways including induction of endogenous iNOS using cytokines and/or lipopolysaccharide (LPS) in various cell types known in the art. Alternatively, the gene encoding the enzyme can be cloned and the enzyme can be generated in cells via heterologous expression from a transient or stable expression plasmid with suitable features for protein expression as are known in the art. Enzymatic activity (nitric oxide production) is calcium independent for iNOS, while the constitutive NOS isoforms, nNOS and eNOS, become active with the addition of various cofactors added to cellular media or extract as are well known in the art. Enzymes specified in Table 1 were expressed in HEK293 cells transiently transfected with human iNOS.
A major metabolic pathway for nitric oxide is to nitrate and nitrite, which are stable metabolites within tissue culture, tissue, plasma, and urine (S Moncada, A Higgs, N Eng J Med 329, 2002 (1993)).
The level of nitrate or nitrite in the specimen can be quantified by any method known in the art which provides adequate sensitivity and reproducibility. A variety of protocols have also been described for detecting and quantifying nitrite and nitrate levels in biological fluids by ion chromatography (e.g., A Everett et al., J. Chromatogr. 706, 437 (1995); J M Monaghan et al., J. Chromatogr. 770, 143 (1997)), high-performance liquid chromatography (e.g., M Kelm et al., Cardiovasc. Res. 41, 765 (1999)), and capillary electrophoresis (MA Friedberg et al., J. Chromatogr. 781, 491 (1997)). For example, 2,3-diaminonaphthalene reacts with the nitrosonium cation that forms spontaneously from NO to form the fluorescent product 1H-naphthotriazole. Using 2,3-diaminonaphthalene (“DAN”), researchers have developed a rapid, quantitative fluorometric assay that can detect from 10 nM to 10 μM nitrite and is compatible with a multi-well microplate format. […] DAN reacts with nitrite ion and gives fluorescent naphthotriazole (MC Carré et al., Analusis 27, 835-838 (1999)). Table 1 provides the test results of various compounds of the subject invention using the DAN assay.
A specimen can be processed prior to determination of nitrate or nitrite as required by the quantification method, or in order to improve the results, or for the convenience of the investigator. For example, processing can involve centrifuging, filtering, or homogenizing the sample. If the sample is whole blood, the blood can be centrifuged to remove cells and the nitrate or nitrite assay performed on the plasma or serum fraction. If the sample is tissue, the tissue can be dispersed or homogenized by any method known in the art prior to determination of nitrate or nitrite. It may be preferable to remove cells and other debris by centrifugation or another method and to determine the nitrate or nitrite level using only the fluid portion of the sample, or the extracellular fluid fraction of the sample. The sample can also be preserved for later determination, for example by freezing of urine or plasma samples. When appropriate, additives may be introduced into the specimen to preserve or improve its characteristics for use in the nitrate or nitrite assay.
The “level” of nitrate, nitrite, or other NO-related product usually refers to the concentration (in moles per liter, micromoles per liter, or other suitable units) of nitrate or nitrite in the specimen, or in the fluid portion of the specimen. However, other units of measure can also be used to express the level of nitrate or nitrite. For example, an absolute amount (in micrograms, milligrams, nanomoles, moles, or other suitable units) can be used, particularly if the amount refers back to a constant amount (e.g., grams, kilograms, milliliters, liters, or other suitable units) of the specimens under consideration. A number of commercially available kits can be used. […]
With `Cn1cncc1-c1nc2ccccc2n1Cc1cc(=O)[nH]c2c(F)c(F)ccc12` [Example 122, 7,8-Difluoro-4-((2-(1-methyl-1H-imidazol-5-yl)-1H-benzo[d]imidazol-1-yl)methyl)quinolin-2(1H)-one], the EC50 (as a rule, the concentration needed to bring the measured effect to its halfway point) is at most 5 µM.
For `O=c1cc(CN(Cc2ccco2)c2ccccc2)c2ccccc2[nH]1` [Example 22, 4-(((Furan-2-ylmethyl)(phenyl)amino)methyl)quinolin-2(1H)-one] the value was at most 5 µM; for `Cc1ccccc1-c1nc2ccccc2n1Cc1cc(=O)[nH]c2c(F)c(F)ccc12` [Example 240, 7,8-Difluoro-4-((2-o-tolyl-1H-benzo[d]imidazol-1-yl)methyl)quinolin-2(1H)-one], above 5 µM.
The result for `O=c1cc(Cn2c(-c3ccccc3Cl)nc3ccccc32)c2ccc(F)c(F)c2[nH]1` [Example 241, 4-((2-(2-Chlorophenyl)-1H-benzo[d]imidazol-1-yl)methyl)-7,8-difluoroquinolin-2(1H)-one] reads at most 5 µM; that for `O=C(c1cncs1)N(Cc1cc(=O)[nH]c2ccccc12)c1ccccc1` [Example 27, N-((2-Oxo-1,2-dihydroquinolin-4-yl)methyl)-N-phenylthiazole-5-carboxamide], above 5 µM; that for `Cc1ccncc1C(=O)N(Cc1cc(=O)[nH]c2c(F)cccc12)c1cccc(Cl)c1` [Example 72, N-(3-Chlorophenyl)-N-((8-fluoro-2-oxo-1,2-dihydroquinolin-4-yl)methyl)-4-methylnicotinamide], above 5 µM.
As to `Cc1nc2ccccc2n1Cc1cc(=O)[nH]c2c(F)c(F)ccc12` [Example 190, 7,8-Difluoro-4-((2-methyl-1H-benzo[d]imidazol-1-yl)methyl)quinolin-2(1H)-one], the 50% effective concentration (EC50) was above 5 µM.
Take `Cc1ncsc1CN(Cc1cc(=O)[nH]c2c(F)cccc12)c1cccc(Cl)c1` [Example 45, 4-(((3-Chlorophenyl)((4-methylthiazol-5-yl)methyl)amino)methyl)-8-fluoroquinolin-2(1H)-one]: the EC50 was at most 5 µM.
For `O=C(c1cncs1)N(Cc1cc(=O)[nH]c2c(F)cccc12)c1cccc(Cl)c1` [Example 44, N-(3-Chlorophenyl)-N-((8-fluoro-2-oxo-1,2-dihydroquinolin-4-yl)methyl)thiazole-5-carboxamide] the value was above 5 µM; for `O=C(c1nnc[nH]1)N(Cc1cc(=O)[nH]c2c(F)c(F)ccc12)c1cccc(Cl)c1` [Example 168, N-(3-Chlorophenyl)-N-[(7,8-difluoro-2-oxo-1,2-dihydroquinolin-4-yl)methyl]-4H-1,2,4-triazole-3-carboxamide], at most 5 µM.
For `CCCc1nc2ccccc2n1Cc1cc(=O)[nH]c2c(F)c(F)ccc12` [Example 219, 7,8-Difluoro-4-((2-propyl-1H-benzo[d]imidazol-1-yl)methyl)quinolin-2(1H)-one] the value was at most 5 µM.
The result for `COc1cccc(C(=O)N(Cc2cc(=O)[nH]c3c(F)cccc23)c2cccc(Cl)c2)c1` [Example 61, N-(3-Chlorophenyl)-N-((8-fluoro-2-oxo-1,2-dihydroquinolin-4-yl)methyl)-3-methoxybenzamide] reads above 5 µM.
The compound `Cc1cccc(C(=O)N(Cc2cc(=O)[nH]c3c(F)cccc23)c2cccc(Cl)c2)c1` [Example 58, N-(3-Chlorophenyl)-N-((8-fluoro-2-oxo-1,2-dihydroquinolin-4-yl)methyl)-3-methylbenzamide] came in with an EC50 above 5 µM.
Compound `Cc1nc(-c2cccc(Cl)c2)n(Cc2cc(=O)[nH]c3c(F)c(F)ccc23)c1C` [Example 257, 4-((2-(3-Chlorophenyl)-4,5-dimethyl-1H-imidazol-1-yl)methyl)-7,8-difluoroquinolin-2(1H)-one] returned an EC50 of at most 5 µM.
Take `CN(C)c1nc2ccccc2n1Cc1cc(=O)[nH]c2c(F)c(F)ccc12` [Example 201, 4-((2-(Dimethylamino)-1H-benzo[d]imidazol-1-yl)methyl)-7,8-difluoroquinolin-2(1H)-one]: the EC50 was above 5 µM.
As for `Cc1ncsc1-c1nc2ccccc2n1Cc1cc(=O)[nH]c2c(F)c(F)ccc12` [Example 119, 7,8-Difluoro-4-((2-(4-methylthiazol-5-yl)-1H-benzo[d]imidazol-1-yl)methyl)quinolin-2(1H)-one], the EC50 was at most 5 µM.
For `CC(C)CCc1nc2ccccc2n1Cc1cc(=O)[nH]c2c(F)c(F)ccc12` [Example 211, 7,8-Difluoro-4-((2-isopentyl-1H-benzo[d]imidazol-1-yl)methyl)quinolin-2(1H)-one] the value was at most 5 µM; for `Cc1cnc(C(=O)N(Cc2cc(=O)[nH]c3ccccc23)c2ccccc2)cn1` [Example 35, 5-Methyl-N-((2-oxo-1,2-dihydroquinolin-4-yl)methyl)-N-phenylpyrazine-2-carboxamide], at most 5 µM.
Take `Cc1ccncc1C(=O)N(Cc1c(F)c(=O)[nH]c2c(F)c(F)ccc12)c1cccc(Cl)c1` [Example 116, N-(3-Chlorophenyl)-4-methyl-N-((3,7,8-trifluoro-2-oxo-1,2-dihydroquinolin-4-yl)methyl)nicotinamide]: the EC50 is at most 5 µM.
Compound `O=c1cc(CN(CCCc2ccco2)c2ccccc2)c2ccccc2[nH]1` [Example 24, 4-(((3-(Furan-2-yl)propyl)(phenyl)amino)rmethyl)quinolin-2(1H)-one] returned an EC50 of at most 5 µM.
In turn, `CC(C)(C)c1nc2ccccc2n1Cc1cc(=O)[nH]c2c(F)c(F)ccc12` [Example 202, 4-((2-tert-Butyl-1H-benzo[d]imidazol-1-yl)methyl)-7,8-difluoroquinolin-2(1H)-one] registered an EC50 above 5 µM.
For `O=C(c1cccnc1)N(Cc1cc(=O)[nH]c2ccccc12)c1ccccc1` [Example 33, N-((2-Oxo-1,2-dihydroquinolin-4-yl)methyl)-N-phenylnicotinamide] the value was above 5 µM; for `Cc1ccc(N(Cc2cc(=O)[nH]c3ccccc23)C(=O)c2ccco2)cc1` [Example 11, N-(4-Methylphenyl)-N-[(2-oxo-1,2-dihydroquinolin-4-yl)methyl]-2-furamide], at most 5 µM; for `Cc1ncsc1C(=O)N(Cc1cc(=O)[nH]c2c(F)ccc(F)c12)c1cccc(Cl)c1` [Example 52, N-(3-Chlorophenyl)-N-((5,8-difluoro-2-oxo-1,2-dihydroquinolin-4-yl)methyl)-4-methylthiazole-5-carboxamide], above 5 µM.
On to `O=c1cc(Cn2c(-c3ccncc3Cl)nc3ccccc32)c2ccc(F)c(F)c2[nH]1` [Example 248, 4-((2-(3-Chloropyridin-4-yl)-1H-benzo[d]imidazol-1-yl)methyl)-7,8-difluoroquinolin-2(1H)-one], for which the EC50 was at most 5 µM.
`O=c1cc(Cn2c(-n3ccnc3)nc3ccccc32)c2ccc(F)c(F)c2[nH]1` [Example 218, 4-((2-(1H-Imidazol-1-yl)-1H-benzo[d]imidazol-1-yl)methyl)-7,8-difluoroquinolin-2(1H)-one] displayed an EC50 of at most 5 µM.
As to `COc1ccccc1C(=O)N(Cc1cc(=O)[nH]c2c(F)cccc12)c1cccc(Cl)c1` [Example 60, N-(3-Chlorophenyl)-N-((8-fluoro-2-oxo-1,2-dihydroquinolin-4-yl)methyl)-2-methoxybenzamide], the EC50 was above 5 µM.
For `CC1CCCCN1c1nc2ccccc2n1Cc1cc(=O)[nH]c2c(F)c(F)ccc12` (racemic) [Example 206, 7,8-Difluoro-4-((2-(2-methylpiperidin-1-yl)-1H-benzo[d]imidazol-1-yl)methyl)quinolin-2(1H)-one] the value was at most 5 µM; for `O=c1cc(Cn2c(C3CCC3)nc3ccccc32)c2ccc(F)c(F)c2[nH]1` [Example 207, 4-((2-Cyclobutyl-1H-benzo[d]imidazol-1-yl)methyl)-7,8-difluoroquinolin-2(1H)-one], at most 5 µM.
